According to patent publication US8030543B2, “Efficient transformation method for sunflower and oil seeds based on positive selection” (Avesthagen Limited, priority 2006, dated 2011):

What was measured:
[1] = tested on: sunflower CMS234B SEA explants; assay: Screening for capability to utilize xylose as carbon source (untransformed SEA explants); format: cell-based, Helianthus annuus; conditions: MS medium with 0.5 mg/l BAP, 3% Xylose as carbon source
Description: In order to determine if sunflower is capable of using xylose as the carbon source, explants were cultured on regeneration media containing sucrose and xylose respectively.

[2] = tested on: Helianthus annuus CMS234B split embryonic axis (SEA) explants; assay: Positive selection and regeneration of sunflower SEA explants transformed with pCAMBIA-XI on media containing Xylose; format: cell-based; conditions: for No of PCR +ve explants / No. of explants Regenerating into shootlets / No. of explants surviving I selection (15 days) / No. of explants surviving I selection (21 days) / No. of explants surviving II selection (15 days) / PCR +ve Regenerants: 100 explants infected, pCAMBIA-XI
Description: The seeds were sterilized and the split embryonic axis isolated as described earlier. […] Agrobacterium cells from the glycerol stock were grown overnight in Luria-Bertani (LB) medium containing Rifampicin (10 μg/ml), Gentamycin (10 μg/ml) and Kanamycin (50 μg/ml) and grown exponentially for a period of 4-6 hrs to reach O.D600=1.0. The cells were centrifuged at 6000 rpm for 5 min at 4° C. and then washed and resuspended in MS liquid to reach an O.D600 of 1.0. The excised explants were immediately transferred to a vacuum infiltration flask containing 25 ml of the resuspended culture. Vacuum at 200 atm pressure for 15 min was applied and quickly released. The culture was then drained off completely and explants collected on a blotting paper. […] After two days of co-cultivation, the explants were washed thoroughly with Murashige and Skoog (1972) liquid medium containing Cefotaxime 250 mg/l. […] After the selection period the shoots were subcultured onto Elongation medium containing ½ Strength MS medium. […] The explants surviving first selection were transferred for a second selection to the same medium for 21 days. Explants were subsequently transferred to their respective elongation media. Healthy shootlets were transferred to their respective rooting media.

SMILES: O=C[C@H](O)[C@@H](O)[C@H](O)CO [Xylose, D-Xylose]
- time within which explants brown and die [1]: 2-3 weeks
- No of PCR +ve explants ([2]; Xylose Conc. 15 (mg/l)): 28
- No. of explants Regenerating into shootlets ([2]; Xylose Conc. 15 (mg/l)): 20
- No. of explants surviving I selection (15 days) ([2]; Xylose Conc. 15 (mg/l)): 80
- No. of explants surviving I selection (21 days) ([2]; Xylose Conc. 15 (mg/l)): 70
- No. of explants surviving II selection (15 days) ([2]; Xylose Conc. 15 (mg/l)): 60
- PCR +ve Regenerants ([2]; Xylose Conc. 15 (mg/l)): 10
- No of PCR +ve explants ([2]; Xylose Conc. 20 (mg/l)): 30
- No. of explants Regenerating into shootlets ([2]; Xylose Conc. 20 (mg/l)): 12
- No. of explants surviving I selection (15 days) ([2]; Xylose Conc. 20 (mg/l)): 72
- No. of explants surviving I selection (21 days) ([2]; Xylose Conc. 20 (mg/l)): 65
- No. of explants surviving II selection (15 days) ([2]; Xylose Conc. 20 (mg/l)): 57
- PCR +ve Regenerants ([2]; Xylose Conc. 20 (mg/l)): 7
- No of PCR +ve explants ([2]; Xylose Conc. 25 (mg/l)): 28
- No. of explants Regenerating into shootlets ([2]; Xylose Conc. 25 (mg/l)): 7
- No. of explants surviving I selection (15 days) ([2]; Xylose Conc. 25 (mg/l)): 65
- No. of explants surviving I selection (21 days) ([2]; Xylose Conc. 25 (mg/l)): 55
- No. of explants surviving II selection (15 days) ([2]; Xylose Conc. 25 (mg/l)): 40
- PCR +ve Regenerants ([2]; Xylose Conc. 25 (mg/l)): 6
- No of PCR +ve explants ([2]; Xylose Conc. 30 (mg/l)): 18
- No. of explants Regenerating into shootlets ([2]; Xylose Conc. 30 (mg/l)): 5
- No. of explants surviving I selection (15 days) ([2]; Xylose Conc. 30 (mg/l)): 50
- No. of explants surviving I selection (21 days) ([2]; Xylose Conc. 30 (mg/l)): 38
- No. of explants surviving II selection (15 days) ([2]; Xylose Conc. 30 (mg/l)): 20
- PCR +ve Regenerants ([2]; Xylose Conc. 30 (mg/l)): 5
- green tissue of plantlets ([2]; plantlets grown on D-Xylose medium, compared to plantlets grown on Hygromycin): 90%
- healthy shoots per explants ([2]; positive selection on Xylose): 2-3
